Our source for the IC50 values is EP3782997A1, “FUSED PYRIMIDINE COMPOUNDS AND PHARMACEUTICAL COMPOSITIONS THEREOF FOR THE TREATMENT OF FIBROTIC DISEASES” (Galapagos N.V., priority 2019, dated 2021).

As usually defined, the IC50 is the concentration that inhibits the measured activity by half.

In this assay the target is hENPP2 (Homo sapiens, UniProt Q13822). Put plainly: Human ENPP2 (hENPP2) biochemical assay using LPC as substrate. The conditions noted are these: 150 µM LPC (palmitoyl 16:0), 37°C for 30 min. In outline: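 IC50 came from compound series (top 50 µM, 1/3 steps) incubated 30 min at 37°C with 1 or 3 µg/mL final enzyme and palmitoyl LPC added at 150 µM, pH 8.5 Tris buffer with Ca2+. Choline output measured as quinoneimine dye at 555 nm via coupled oxidase/HRP/TOOS detection.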
Regarding `Cc1cc(C)cc(Nc2ncc3c(n2)CN(C2CC4CCC(C2)N4C(=O)c2ccc4[nH]nnc4c2)C3)c1` (centres unmarked) [compound 114, 1H-benzotriazol-5-yl-[3-[2-(3,5-dimethylanilino)-5,7-dihydropyrrolo[3,4-d]pyrimidin-6-yl]-8-azabicyclo[3.2.1]octan-8-yl]methanone], the IC50 lay in the range of 100 to 500 nM. Next, `Cc1cc(C)cc(Nc2ncc3c(n2)CN([C@H]2CCN(C(=O)c4cc5nn[nH]c5cc4F)[C@H](C)C2)C3)c1` [compound 116, [(2R,4S)-4-[2-(3,5-dimethylanilino)-5,7-dihydropyrrolo[3,4-d]pyrimidin-6-yl]-2-methyl-1-piperidyl]-(6-fluoro-1H-benzotriazol-5-yl)methanone]: 0.01 to 100 nM; `COc1cc2[nH]nnc2cc1C(=O)N1CC[C@H](N2Cc3cnc(Nc4cc(C)cc(C)c4)nc3C2)C[C@H]1C` [compound 120, [(2R,4S)-4-[2-(3,5-dimethylanilino)-5,7-dihydropyrrolo[3,4-d]pyrimidin-6-yl]-2-methyl-1-piperidyl]-(6-methoxy-1H-benzotriazol-5-yl)methanone]: 0.01 to 100 nM; `Cc1cc(C)cc(Nc2ncc3c(n2)CN([C@H]2CCN(C(=O)c4cccc(-c5nnn[nH]5)c4)[C@@H](C)C2)C3)c1` [compound 123, [(2S,4S)-4-[2-(3,5-dimethylanilino)-5,7-dihydropyrrolo[3,4-d]pyrimidin-6-yl]-2-methyl-1-piperidyl]-[3-(1H-tetrazol-5-yl)phenyl]methanone]: greater than 1000 nM. `COc1cc(Nc2ncc3c(n2)CN([C@@H]2CCN(C(=O)c4ccc5[nH]nnc5c4)[C@H](C)C2)C3)ccc1F` [compound 126, 1H-benzotriazol-5-yl-[(2R,4R)-4-[2-(4-fluoro-3-methoxy-anilino)-5,7-dihydropyrrolo[3,4-d]pyrimidin-6-yl]-2-methyl-1-piperidyl]methanone] gave an IC50 of 0.01 to 100 nM. `COc1cc(Nc2ncc3c(n2)CN([C@@H]2CCN(C(=O)c4ccc5[nH]nnc5c4)[C@H](C)C2)C3)cc(C(F)(F)F)c1` [compound 127, 1H-benzotriazol-5-yl-[(2R,4R)-4-[2-[3-methoxy-5-(trifluoromethyl)anilino]-5,7-dihydropyrrolo[3,4-d]pyrimidin-6-yl]-2-methyl-1-piperidyl]methanone] yielded a 50% inhibitory concentration (IC50) of 0.01 to 100 nM. `C[C@@H]1C[C@@H](N2Cc3cnc(Nc4cc(C#N)cc(C(F)(F)F)c4)nc3C2)CCN1C(=O)c1ccc2[nH]nnc2c1` [compound 128, 3-[[6-[(2R,4S)-1-(1H-benzotriazole-5-carbonyl)-2-methyl-4-piperidyl]-5,7-dihydropyrrolo[3,4-d]pyrimidin-2-yl]amino]-5-(trifluoromethyl)benzonitrile] came in with an IC50 of 0.01 to 100 nM. Take `C[C@@H]1C[C@H](N2Cc3cnc(Nc4cc(C(N)=O)cc(C(F)(F)F)c4)nc3C2)CCN1C(=O)c1ccc2[nH]nnc2c1` [compound 129, 3-[[6-[(2R,4R)-1-(1H-benzotriazole-5-carbonyl)-2-methyl-4-piperidyl]-5,7-dihydropyrrolo[3,4-d]pyrimidin-2-yl]amino]-5-(trifluoromethyl)benzamide]: the IC50 fell in the range of 0.01 to 100 nM. As for `Cc1ccc(Nc2ncc3c(n2)CN([C@@H]2CCN(C(=O)c4ccc5[nH]nnc5c4)[C@H](C)C2)C3)cc1` [compound 134, 1H-benzotriazol-5-yl-[(2R,4R)-2-methyl-4-[2-(4-methylanilino)-5,7-dihydropyrrolo[3,4-d]pyrimidin-6-yl]-1-piperidyl]methanone], the IC50 was 0.01 to 100 nM. `C[C@@H]1C[C@H](N2Cc3cnc(Nc4ccc(Cl)cc4)nc3C2)CCN1C(=O)c1ccc2[nH]nnc2c1` [compound 135, 1H-benzotriazol-5-yl-[(2R,4R)-4-[2-(4-chloroanilino)-5,7-dihydropyrrolo[3,4-d]pyrimidin-6-yl]-2-methyl-1-piperidyl]methanone] came in with a half-inhibitory concentration (IC50) of 0.01 to 100 nM. In the case of `Cc1cc(C)cc(Nc2ncc3c(n2)CN(C2CCN(C(=O)c4cc5nn[nH]c5cn4)CC2)C3)c1` [compound 140, [4-[2-(3,5-dimethylanilino)-5,7-dihydropyrrolo[3,4-d]pyrimidin-6-yl]-1-piperidyl]-(3H-triazolo[4,5-c]pyridin-6-yl)methanone], the half-inhibitory concentration (IC50) lay within 100 to 500 nM.

Turning to `CCOc1cc2[nH]nnc2cc1C(=O)N1CCC(N2Cc3cnc(Nc4cc(C)cc(C)c4)nc3C2)CC1` [compound 141, [4-[2-(3,5-dimethylanilino)-5,7-dihydropyrrolo[3,4-d]pyrimidin-6-yl]-1-piperidyl]-(6-ethoxy-1H-benzotriazol-5-yl)methanone], the IC50 lay in the range of 0.01 to 100 nM. With `C[C@@H]1C[C@@H](N2Cc3cnc(Nc4ccc(F)cc4)nc3C2)CCN1C(=O)c1ccc2[nH]nnc2c1` [compound 143, 1H-benzotriazol-5-yl-[(2R,4S)-4-[2-(4-fluoroanilino)-5,7-dihydropyrrolo[3,4-d]pyrimidin-6-yl]-2-methyl-1-piperidyl]methanone], the IC50 is 500 to 1000 nM. For the compound `C[C@@H]1C[C@H](N2Cc3cnc(Nc4ccc(F)cc4)nc3C2)CCN1C(=O)c1ccc2[nH]nnc2c1` [compound 144, 1H-benzotriazol-5-yl-[(2R,4R)-4-[2-(4-fluoroanilino)-5,7-dihydropyrrolo[3,4-d]pyrimidin-6-yl]-2-methyl-1-piperidyl] methanone], the IC50 fell in the range of 0.01 to 100 nM. As for `COC(=O)c1cccc(C(=O)N2CC[C@@H](N3Cc4cnc(Nc5cc(C)cc(C)c5)nc4C3)C[C@H]2C)c1` [compound 145, methyl 3-[(2R,4R)-4-[2-(3,5-dimethylanilino)-5,7-dihydropyrrolo[3,4-d]pyrimidin-6-yl]-2-methyl-piperidine-1-carbonyl]benzoate], the figure is greater than 1000 nM. As for `Cc1cc(C)cc(Nc2ncc3c(n2)CN([C@@H]2CCN(C(=O)c4c[nH]nn4)[C@H](C)C2)C3)c1` [compound 147, [(2R,4R)-4-[2-(3,5-dimethylanilino)-5,7-dihydropyrrolo[3,4-d]pyrimidin-6-yl]-2-methyl-1-piperidyl]-(1H-triazol-4-yl)methanone], the IC50 lay within 0.01 to 100 nM.

Compound `COc1ccc(Nc2ncc3c(n2)CN([C@@H]2CCN(C(=O)c4ccc5[nH]nnc5c4)[C@H](C)C2)C3)cc1` [compound 149, 1H-benzotriazol-5-yl-[(2R,4R)-4-[2-(4-methoxyanilino)-5,7-dihydropyrrolo[3,4-d]pyrimidin-6-yl]-2-methyl-1-piperidyl] methanone] yielded an IC50 of 0.01 to 100 nM.

Regarding `C[C@@H]1C[C@H](N2Cc3cnc(Nc4ccc(S(F)(F)(F)(F)F)cc4)nc3C2)CCN1C(=O)c1ccc2[nH]nnc2c1` [compound 150, 1H-benzotriazol-5-yl-[(2R,4R)-2-methyl-4-[2-[4-(pentafluoro-λ^6-sulfanyl)anilino]-5,7-dihydropyrrolo[3,4-d]pyrimidin-6-yl]-1-piperidyl]methanone], the IC50 is 0.01 to 100 nM. Next, `COc1cc(Nc2ncc3c(n2)CN([C@@H]2CCN(C(=O)c4ccc5[nH]nnc5c4)[C@H](C)C2)C3)cc(OC)c1` [compound 151, 1H-benzotriazol-5-yl-[(2R,4R)-4-[2-(3,5-dimethoxyanilino)-5,7-dihydropyrrolo[3,4-d]pyrimidin-6-yl]-2-methyl-1-piperidyl]methanone]: 0.01 to 100 nM; `C[C@@H]1C[C@H](N2Cc3cnc(Nc4ccc(C(F)(F)F)cc4)nc3C2)CCN1C(=O)c1ccc2[nH]nnc2c1` [compound 152, 1H-benzotriazol-5-yl-[(2R,4R)-2-methyl-4-[2-[4-(trifluoromethyl)anilino]-5,7-dihydropyrrolo[3,4-d]pyrimidin-6-yl]-1-piperidyl]methanone]: 0.01 to 100 nM; `Cc1cc(C)cc(Nc2ncc3c(n2)CN([C@@H]2CCN(C(=O)c4ccnc(NS(C)(=O)=O)c4)[C@H](C)C2)C3)c1` [compound 154, N-[4-[(2R,4R)-4-[2-(3,5-dimethylanilino)-5,7-dihydropyrrolo[3,4-d]pyrimidin-6-yl]-2-methyl-piperidine-1-carbonyl]-2-pyridyl]methanesulfonamide]: 0.01 to 100 nM. In turn, `Cc1cc(C)cc(Nc2ncc3c(n2)CN([C@@H]2CCN(C(=O)c4ccc(NS(C)(=O)=O)nc4)[C@H](C)C2)C3)c1` [compound 155, N-[5-[(2R,4R)-4-[2-(3,5-dimethylanilino)-5,7-dihydropyrrolo[3,4-d]pyrimidin-6-yl]-2-methyl-piperidine-1-carbonyl]-2-pyridyl]methanesulfon amide] returned an IC50 of 0.01 to 100 nM. In turn, `Cc1cc(C)cc(Nc2ncc3c(n2)CN([C@@H]2CCN(C(=O)c4ccc5c(c4)CC(=O)N5)[C@H](C)C2)C3)c1` [compound 156, 5-[(2R,4R)-4-[2-(3,5-dimethylanilino)-5,7-dihydropyrrolo[3,4-d]pyrimidin-6-yl]-2-methyl-piperidine-1-carbonyl]indolin-2-one] displayed an IC50 of 0.01 to 100 nM. In the case of `Cc1cc(C)cc(Nc2ncc3c(n2)CN([C@@H]2CCN(C(=O)c4ccc5[nH]c(=O)[nH]c5c4)[C@H](C)C2)C3)c1` [compound 157, 5-[(2R,4R)-4-[2-(3,5-dimethylanilino)-5,7-dihydropyrrolo[3,4-d]pyrimidin-6-yl]-2-methyl-piperidine-1-carbonyl]-1,3-dihydrobenzimidazol-2-one], the IC50 was in the range of 0.01 to 100 nM. For `Cc1cc(C)cc(Nc2ncc3c(n2)CN([C@@H]2CCN(C(=O)c4ccc(S(N)(=O)=O)nc4)[C@H](C)C2)C3)c1` [compound 159, 5-[(2R,4R)-4-[2-(3,5-dimethylanilino)-5,7-dihydropyrrolo[3,4-d]pyrimidin-6-yl]-2-methyl-piperidine-1-carbonyl]pyridine-2-sulfonamide], the IC50 lay in the range of 500 to 1000 nM. Compound `Cc1cc(C)cc(Nc2ncc3c(n2)CN([C@@H]2CCN(C(=O)c4cn(C)nn4)[C@H](C)C2)C3)c1` [compound 161, [(2R,4R)-4-[2-(3,5-dimethylanilino)-5,7-dihydropyrrolo[3,4-d]pyrimidin-6-yl]-2-methyl-1-piperidyl]-(1-methyltriazol-4-yl)methanone] came in with an IC50 greater than 1000 nM.
